Legend:
[1] = tested on: TRAP activity in RAW 264.7; assay: Tartrate resistant acid phosphatase (TRAP) solution assay in RANKL-treated RAW 264.7 cells; assay type: cell-based; conditions: for inhibition at 10 µM: Mus musculus, RAW264.7, 120 h, 5 days, RANKL 100 ng/mL
Experimental: 10^3 Raw 264.7 cells were cultured in 96-well plates with 100 ng/mL RANKL (R&D Systems, Minneapolis, Minn.). Cultures were incubated at 37° C. in 5% CO2 for 5 days with the addition of media containing fresh RANKL on day 3. In the TRAP solution assay, enzyme activity was examined by the conversion of α-naphthyl phosphate (4 mmol/liter; Sigma Chemical Co.) to α-naphthol in the presence of a 2 mol/liter L-tartrate solution (Sigma Chemical Co.) in each well. Absorbance was measured at 405 nm using a microplate reader (model 550; Bio-Rad Labs.) (Bandyopadhyay, S. et. el. Biochem. Pharmacol. 2006, 72, 184.).

[2] = tested on: D1 cells; assay: Osteogenic differentiation, quantification of mineralization (Alizarin red S) in D1 cells; assay type: cell-based, Balb/c mice; conditions: 10 μM, osteo-induction medium
Experimental: (§1) D1-cell, which is a mesenchymal stem cell line cloned from bone marrow cells of Balb/c mice, were purchased from American Type Culture Collection (Rockville, Md.). D1-cells can be induced into osteoblasts, adipocytes and chondrocytes. D1-cells were maintained in DMEM (Gibco BRL, Gaithersburg, Md.) supplemented with 10% FBS, 100 U/ml of penicillin and streptomycin.
(§2) New synthetic compounds were dissolved in DMSO to a final concentration of 10 mM and stored at −20° C. The concentration used was 10 μM and freshly diluted to the medium with a final concentration of DMSO at 0.1%. Control cultures were treated with the same amount of DMSO as used in the corresponding experiments.
(§3) Osteogenic differentiation was induced by culturing cells in an osteo-induction medium (OIM, 10% FBS, 0.1 μM dexamethasone, 10 mM β-glycerophosphate, and L-Ascorbic 2 phosphate 100 μM in low glucose DMEM) for 7-14 days. The extracellular matrix calcification was estimated by using an Alizarin red S stain (Carl, A. et al Anal. Biochem. 2004, 329, 77). The Alizarin red S-stained mineral was quantified by the osteogenesis quantification kit (CHEMICON®).

[3] = tested on: MC3T3E1 cells; assay: Osteogenic differentiation, quantification of mineralization (Alizarin red S) in MC3T3E1 cells; assay type: cell-based, C57BL/6 mice; conditions: for Mineralization MC3T3E1 cells (12 days): 10 μM, osteo-induction medium
Experimental: MC3T3E1 cell, which is a preosteoblast cell line derived from calvaria of C57BL/6 mice, were obtained from the American Type Culture Collection (Rockville, Md.). MC3T3E1 cells were maintained in αMEM (Gibco BRL, Gaithersburg, Md.) supplemented with 10% FBS, 100 U/mL of penicillin and streptomycin.
as §2, §3

[4] = tested on: D1 cells; assay: Cell viability by MTT assay in D1 cells; assay type: cell-based, Balb/c mice; conditions: 10 μM, % of control
Experimental: as §1, §2
(§4) The MTT assay is a calorimetric assay based on the ability of the viable cells to reduce a soluble yellow tetrazolium salt to blue formazan crystals (Carmichael, J. et. el. Cancer Research 1987, 47, 936). After compound treatments, 350 μL of MTT solution ([…] in PBS) were added to each well and incubated for 4 hrs. DMSO was then added for another 0.5 hrs to thoroughly dissolve the dark blue crystals. The absorbance at 570 nm was measured with an ELISA reader. Inhibition of mitochondrial metabolism was shown as relative activity (% of control).

[5] = tested on: hADSCs; assay: Cell viability by MTT assay in hADSCs; assay type: cell-based, Human; conditions: 10 μM, % of control
Experimental: (§5) Human adipose tissue derived stem cells (hADSCs), which is derived from adipose tissue, were selected an maintained in a keratinocyte SFM medium (Gibco BRL, Gaithersburg, Md.) supplemented with 5% FBS, 100 U/ml of penicillin and streptomycin.
as §2, §4

[6] = tested on: hADSCs; assay: Osteogenic differentiation, quantification of mineralization (Alizarin red S) in hADSCs; assay type: cell-based, Human; conditions: 10 μM, osteo-induction medium
Experimental: as §5, §2, §3

| Compound | melting point | inhibition at 10 µM [1] | Mineralization D1 cells (7 days) [2] | Mineralization MC3T3E1 cells (12 days) [3] | Promotion of osteoblast activity (mineralization in MC3T3E1 cells) relative to ipriflavone ([3]; more active than ipriflavone) | Cell viability D1 cells (3 days, MTT) [4] | Osteoclast inhibitory activity (inhibition of TRAP activity in RAW 264.7) relative to ipriflavone ([1]; more active than ipriflavone) | Cell viability hADSCs (3 days, MTT) [5] | Mineralization hADSCs (10 days) [6] | Anti-osteoporotic activities compared with compound 5c ([1]; overall statement on Tables 1 and 2 (TRAP inhibition and mineralization)) |
| --- | --- | --- | --- | --- | --- | --- | --- | --- | --- | --- |
| COc1ccc2c(=O)c(-c3ccc(OCC(O)CNC4CC4)cc3)coc2c1 (stereo not drawn) [Compound 5b] | 105 to 106 °C | 103% | – | – | – | – | – | – | – | – |
| COc1ccc2c(=O)c(-c3ccc(OCC(O)CNC4CCCCC4)cc3)coc2c1 (stereo not drawn) [Compound 5c, 3-{4-[3-(Cyclohexylamino)-2-hydroxypropoxy]phenyl}-7-methoxy-4H-chromen-4-one] | 125 to 126 °C | 119% | 78% | 976% | 10 fold | 82% | 4 fold | 97% | – | – |
| COc1ccc2c(=O)c(-c3ccc(OCC(O)CN4CCOCC4)cc3)coc2c1 (stereo not drawn) [Compound 5a, 3-[4-(2-Hydroxy-3-morpholinopropoxy)phenyl]-7-methoxy-4H-chromen-4-one] | 117 to 118 °C | 0% | – | – | – | – | – | – | – | – |
| CC(C)Oc1ccc2c(=O)c(-c3ccccc3)coc2c1 [Ipriflavone, reference compound] | – | 31% | 100% | 100% | – | 81% | – | 99% | 100% | – |
| COc1ccc(-c2coc3cc(OCC(O)CNC4CCCCC4)ccc3c2=O)cc1OC (stereo not drawn) [Compound 6c, 7-[3-(Cyclohexylamino)-2-hydroxypropoxy]-3-(3,4-dimethoxyphenyl)-4H-chromen-4-one] | 70 to 71 °C | 120% | – | – | – | – | – | – | – | – |
| COc1ccc(-c2coc3cc(OCC(O)CN4CCOCC4)ccc3c2=O)cc1OC (stereo not drawn) [Compound 6a, 3-(3,4-Dimethoxyphenyl)-7-(2-hydroxy-3-morpholinopropoxy)-4H-chromen-4-one] | 135 to 136 °C | 0% | – | – | – | – | – | – | – | – |
| COc1ccc2c(=O)c(-c3ccc(OCC4CO4)cc3)coc2c1 (stereo not drawn) [Compound 3, 7-Methoxy-3-[4-(oxiran-2-ylmethoxy)phenyl]-4H-chromen-4-one] | 153 to 154 °C | 107% | – | – | – | – | – | – | – | – |
| COc1ccc(-c2coc3cc(OCC(O)CN4CCNCC4)ccc3c2=O)cc1OC (stereo not drawn) [Compound 6b, 3-(3,4-Dimethoxyphenyl)-7-[2-hydroxy-3-(piperazin-1-yl)propoxy]-4H-chromen-4-one] | 84 to 85 °C | 0% | – | – | – | – | – | – | – | – |
| COc1ccc(-c2coc3cc(OCC4CO4)ccc3c2=O)cc1OC (stereo not drawn) [Compound 4, 3-(3,4-Dimethoxyphenyl)-7-(oxiran-2-ylmethoxy)-4H-chromen-4-one] | – | 119% | 112% | 977% | – | 76% | – | 84% | 429% | comparable anti-osteoporotic activities with that of compound 5c |
